Measurements from article PMC12125979, “Complete xylan utilization pathway and regulation mechanisms involved in marine algae degradation by cosmopolitan marine and human gut microbiota” (The ISME Journal, 2025).

T1: BxlE (Streptomyces thermoviolaceus, UniProt Q76BU9)
T1 construct: gene bxlD
T1 sequence (Q76BU9 1-436): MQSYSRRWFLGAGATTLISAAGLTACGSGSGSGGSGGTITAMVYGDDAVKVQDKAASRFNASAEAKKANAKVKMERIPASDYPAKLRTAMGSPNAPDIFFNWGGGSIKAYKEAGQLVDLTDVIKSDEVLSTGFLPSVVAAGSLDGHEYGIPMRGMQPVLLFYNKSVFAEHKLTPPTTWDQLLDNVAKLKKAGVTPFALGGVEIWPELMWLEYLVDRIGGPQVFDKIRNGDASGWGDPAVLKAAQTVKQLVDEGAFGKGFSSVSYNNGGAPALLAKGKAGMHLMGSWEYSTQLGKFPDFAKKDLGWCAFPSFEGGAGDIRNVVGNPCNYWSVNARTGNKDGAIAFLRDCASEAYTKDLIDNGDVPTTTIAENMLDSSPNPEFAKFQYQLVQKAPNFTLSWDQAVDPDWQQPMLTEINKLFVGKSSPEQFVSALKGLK


How the values were obtained:
XylRA [1] = experiment: isothermal titration calorimetry; details: 10 mM Tris-HCl pH 8.0, 100 mM NaCl, 25°C; effector
BxlE = biological target: T1, BxlE; experiment: biochemical; design: isothermal titration calorimetry binding of xylooligosaccharides to recombinant substrate-binding proteins
XylC = biological target: T2, XylC; experiment: isothermal titration calorimetry; assay type: binding, Vibrio sp. EA2; details: 10 mM Tris-HCl pH 8.0, 100 mM NaCl, 25°C
T2 construct: construct borders only in supplement

XylRA [2] = biological target: XylRA (Vibrio sp. EA2, UniProt A0A090T8X9 1-401); experiment: EMSA; xylose; EMSA: 25 ng biotin-labelled probe, 0.1-0.5 nmol XylRA in 20 uL EMSA/Gel-shift binding buffer (Beyotime), xylose present, room temperature; salt and pH not stated; details: protein: recombinant; tags: C-terminal His (pET-22b); chain copies: 2; label: 5'-biotin on strand 1; blunt

Row | Molecule | Kd (BxlE) [nM] | binding result (XylRA [2]) | further results
1 | OC1OC[C@@H](O)[C@H](O)[C@H]1O (stereo partly shown) [X, xylose] |  |  | Kd (XylRA [1]): 5.1 µM
2 | OC1OC[C@@H](O[C@@H]2OC[C@@H](O[C@@H]3OC[C@@H](O[C@@H]4OC[C@@H](O)[C@H](O)[C@H]4O)[C@H](O)[C@H]3O)[C@H](O)[C@H]2O)[C@H](O)[C@H]1O (stereo partly drawn) [β-1,4X4] | 13.2 ± 1.93 |  | 
3 | OC1OC[C@@H](O)[C@H](O[C@@H]2OC[C@@H](O)[C@H](O[C@@H]3OC[C@@H](O)[C@H](O[C@@H]4OC[C@@H](O)[C@H](O)[C@H]4O)[C@H]3O)[C@H]2O)[C@H]1O (stereo partly drawn) [β-1,3X4, β-1,3-xylotetraose] |  |  | Kd (XylC): 1000 nM
4 | OC1OC[C@@H](O[C@@H]2OC[C@@H](O[C@@H]3OC[C@@H](O)[C@H](O)[C@H]3O)[C@H](O)[C@H]2O)[C@H](O)[C@H]1O (stereo partly drawn) [β-1,4X3] | 6.28 ± 1.93 |  | 
5 | OC1OC[C@@H](O[C@@H]2OC[C@@H](O)[C@H](O)[C@H]2O)[C@H](O)[C@H]1O (stereo partly drawn) [β-1,4X2] | 15.1 ± 4.04 |  | 
6 | PxylC (dsDNA) DNA 1: GGAAATAAATAGAATAAATGTGGTGAGAGATATAATAATACTTGCCATAG DNA 2: CTATGGCAAGTATTATTATATCTCTCACCACATTTATTCTATTTATTTCC |  | binds | 
7 | Pxyn26B (dsDNA) DNA 1: ACACAAAAAAAATATAAAAATATAATCAGAAAAAATCATAATTGATATTG DNA 2: CAATATCAATTATGATTTTTTCTGATTATATTTTTATATTTTTTTTGTGT |  | binds | 
8 | PxylB (dsDNA) DNA 1: CAATTATGTTTTTTTACAGGTGAATTCACGGATTTCACGAGTGAGTCTGA DNA 2: TCAGACTCACTCGTGAAATCCGTGAATTCACCTGTAAAAAAACATAATTG |  | binds | 
9 | PxylT (dsDNA) DNA 1: ACATTTAGCAAATAGGTGAAATTTGGTATCAAAAATCATAATTGATGGCG DNA 2: CGCCATCAATTATGATTTTTGATACCAAATTTCACCTATTTGCTAAATGT |  | binds | 
10 | PxylT-m2 (dsDNA) DNA 1: ACATTTAGCGCATAGGTGAAATTTGGTATCGCAAATCATAATTGATGGCG DNA 2: CGCCATCAATTATGATTTGCGATACCAAATTTCACCTATGCGCTAAATGT |  | no binding | 
